# Experimental data taken from US9018215B2, “Heteroaromatic compounds, medicaments containing said compounds, use thereof and processes for the preparation thereof” (Boehringer Ingelheim International GmbH, priority 2013, dated 2015).
# Target: T1, ENaC (Epithelial Sodium Channel) (Mus musculus, UniProt Q61180+Q9WU38+Q9WU39)
# T1 construct: Mouse kidney M-1 cells were cultivated in DMEM containing 5% FCS and 5 μM dexamethasone; endogenous in cells; host or cells: mouse kidney M-1 cells
# T1 sequence (Q61180 1-699): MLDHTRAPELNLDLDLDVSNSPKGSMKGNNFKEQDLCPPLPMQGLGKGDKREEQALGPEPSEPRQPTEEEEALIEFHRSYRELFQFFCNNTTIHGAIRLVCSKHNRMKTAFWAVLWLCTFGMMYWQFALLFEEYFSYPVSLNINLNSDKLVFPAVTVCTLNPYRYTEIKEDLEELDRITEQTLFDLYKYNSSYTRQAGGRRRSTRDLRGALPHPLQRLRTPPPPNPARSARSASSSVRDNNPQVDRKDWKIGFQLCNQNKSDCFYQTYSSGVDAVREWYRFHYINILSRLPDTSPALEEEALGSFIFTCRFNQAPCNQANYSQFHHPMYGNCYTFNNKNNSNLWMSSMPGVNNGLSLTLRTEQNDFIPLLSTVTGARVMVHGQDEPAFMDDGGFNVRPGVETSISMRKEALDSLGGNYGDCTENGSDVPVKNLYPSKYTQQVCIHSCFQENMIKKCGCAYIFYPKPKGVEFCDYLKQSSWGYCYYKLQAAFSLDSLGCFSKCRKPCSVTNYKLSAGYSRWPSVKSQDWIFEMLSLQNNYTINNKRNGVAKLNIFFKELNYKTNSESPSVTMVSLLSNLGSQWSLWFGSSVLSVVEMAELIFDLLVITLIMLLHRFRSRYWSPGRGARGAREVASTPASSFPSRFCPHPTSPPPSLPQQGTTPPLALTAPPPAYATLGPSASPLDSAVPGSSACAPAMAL
# T1 sequence (Q9WU38 1-638): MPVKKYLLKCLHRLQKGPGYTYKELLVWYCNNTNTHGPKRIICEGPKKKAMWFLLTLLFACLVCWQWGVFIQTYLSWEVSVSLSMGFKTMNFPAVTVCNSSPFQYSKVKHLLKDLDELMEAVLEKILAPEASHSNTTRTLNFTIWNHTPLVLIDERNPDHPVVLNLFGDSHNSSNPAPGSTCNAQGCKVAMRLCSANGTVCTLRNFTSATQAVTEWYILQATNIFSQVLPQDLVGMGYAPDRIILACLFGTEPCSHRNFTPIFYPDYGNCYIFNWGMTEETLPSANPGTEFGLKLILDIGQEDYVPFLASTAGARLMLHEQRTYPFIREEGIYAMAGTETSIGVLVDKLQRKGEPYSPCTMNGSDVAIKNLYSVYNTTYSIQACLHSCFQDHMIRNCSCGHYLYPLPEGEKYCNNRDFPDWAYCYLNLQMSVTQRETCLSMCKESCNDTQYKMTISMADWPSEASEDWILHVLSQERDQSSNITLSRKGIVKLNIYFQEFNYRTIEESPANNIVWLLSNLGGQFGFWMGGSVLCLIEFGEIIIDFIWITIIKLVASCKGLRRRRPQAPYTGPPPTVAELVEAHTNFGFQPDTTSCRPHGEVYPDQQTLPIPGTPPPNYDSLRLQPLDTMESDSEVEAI
# T1 sequence (Q9WU39 1-655): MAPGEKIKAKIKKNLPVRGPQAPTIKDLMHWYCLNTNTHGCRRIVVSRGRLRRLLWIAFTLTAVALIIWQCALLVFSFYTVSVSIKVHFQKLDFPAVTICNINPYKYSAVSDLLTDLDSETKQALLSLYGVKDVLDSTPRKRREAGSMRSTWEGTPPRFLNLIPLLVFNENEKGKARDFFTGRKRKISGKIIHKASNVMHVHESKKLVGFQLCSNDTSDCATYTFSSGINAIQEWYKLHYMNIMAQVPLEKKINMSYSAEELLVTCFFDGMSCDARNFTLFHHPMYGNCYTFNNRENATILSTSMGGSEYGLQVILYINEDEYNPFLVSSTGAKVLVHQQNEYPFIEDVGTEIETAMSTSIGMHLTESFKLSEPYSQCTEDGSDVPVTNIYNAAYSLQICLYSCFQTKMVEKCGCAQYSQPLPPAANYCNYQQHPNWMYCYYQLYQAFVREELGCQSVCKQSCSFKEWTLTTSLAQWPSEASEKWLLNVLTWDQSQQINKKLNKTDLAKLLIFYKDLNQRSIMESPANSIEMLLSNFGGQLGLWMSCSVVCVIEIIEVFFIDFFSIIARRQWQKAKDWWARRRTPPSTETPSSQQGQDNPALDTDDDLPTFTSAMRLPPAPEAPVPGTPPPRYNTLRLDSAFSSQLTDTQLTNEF
# Assay: Ussing chamber assay: short circuit current (I_sc) in M-1 cells, inhibition of the amiloride sensitive I_SC
# Format: cell-based
# Details: Mouse kidney M-1 cells on transwell filters, compounds added to the apical solution, 37° C., voltage-clamp mode
# Protocol: Mouse kidney M-1 cells were cultivated in DMEM containing 5% FCS and 5 μM dexamethasone for 10 to 12 days on polyester transwell filters. Filters were inserted into a teflon-coated well-plate which fit into the in-house ussing chamber system. Prior to measurement the medium of M-1 cells was replaced with Caco-2 transport buffer (Invitrogen, Germany). During measurements, the Ussing chamber temperature was kept at 37° C. Short circuit currents (I_sc) were measured in the voltage-clamp mode using an in-house built amplifier (Boehringer Ingelheim, Biberach) with the software package Lab View for data acquisition and analysis. The transepithelial electrical resistance (TEER) was determined by the application of voltage steps of ±5 mV every 5 sec. Compounds were administered at a final concentration of 3 μM or at increasing concentrations (1-3-10 μM) to the apical solution. At the end of each experiment the amiloride sensitive I_SC was measured by adding 3 μM amiloride to the apical compartment. Results are expressed as inhibition in percent of the amiloride effect or as IC50. With the example compounds given above, the following IC50 values were determined in the Ussing Chamber assay: […]
row,IC50 [nM],Structure (SMILES)
1,3,COC(=O)c1cc(CN2CCC(N/C(N)=N/C(=O)c3nc(Cl)c(N)nc3N)CC2)ccn1 [Example 1.1]
2,10,NC(=NC(=O)c1nc(Cl)c(N)nc1N)NC1CCN(Cc2ccnc(C(=O)N(CCO)CCO)c2)CC1 [Example 1.2]
3,18,NC(=NC(=O)c1nc(Cl)c(N)nc1N)NC1CCN(Cc2cn3cc(C(=O)NCCOCCO)ccc3n2)CC1 [Example 1.3]
4,3,NC(=NC(=O)c1nc(Cl)c(N)nc1N)NC1CCN(Cc2ccc(CCc3cccnc3)nc2)CC1 [Example 1.4]
5,15,NC(=NC(=O)c1nc(Cl)c(N)nc1N)NC1CCN(Cc2ccccn2)CC1 [Example 1.5]
6,9,NC(=NC(=O)c1nc(Cl)c(N)nc1N)NC1CCN(Cc2ccc(=O)n(Cc3cccnc3)c2)CC1 [Example 1.6]
7,4,COC(=O)c1ccc2nc(CN3CCC(NC(N)=NC(=O)c4nc(Cl)c(N)nc4N)CC3)cn2c1 [Example 1.7]
8,11,NC(=NC(=O)c1nc(Cl)c(N)nc1N)NC1CCN(Cc2cn3cc(C(=O)NCCO)ccc3n2)CC1 [Example 1.8]
9,17,NC(=NC(=O)c1nc(Cl)c(N)nc1N)NC1CCN(Cc2cscn2)CC1 [Example 1.9]
10,4,NC(=NC(=O)c1nc(Cl)c(N)nc1N)NC1CCN(Cc2nc3ccccc3c(=O)[nH]2)CC1 [Example 1.10]
11,3,COC(=O)c1ccc(CN2CCC(NC(N)=NC(=O)c3nc(Cl)c(N)nc3N)CC2)s1 [Example 1.11]
12,4,C#Cc1cncc(CN2CCC(NC(N)=NC(=O)c3nc(Cl)c(N)nc3N)CC2)c1 [Example 1.12]
13,3,NC(=NC(=O)c1nc(Cl)c(N)nc1N)NC1CCN(Cc2cn3cc(I)ccc3n2)CC1 [Example 1.13]
14,4,NC(=NC(=O)c1nc(Cl)c(N)nc1N)NC1CCN(Cc2ccnc(C(=O)NCCOCCO)c2)CC1 [Example 1.14]
15,6,NC(=NC(=O)c1nc(Cl)c(N)nc1N)NC1CCN(Cc2cn3ccccc3n2)CC1 [Example 1.15]
16,5,NC(=NC(=O)c1nc(Cl)c(N)nc1N)NC1CCN(Cc2nc3ccccc3[nH]2)CC1 [Example 1.16]
17,5,NC(=NC(=O)c1nc(Cl)c(N)nc1N)NC1CCN(Cc2ccc(Br)nc2)CC1 [Example 1.17]
18,4,COC(=O)c1cc(CN2CCC(N/C(N)=N/C(=O)c3nc(Br)c(N)nc3N)CC2)ccn1 [Example 1.19]
19,6,N/C(=N\C(=O)c1nc(Cl)c(N)nc1N)NC1CCN(Cc2ccc(=O)n(Cc3cn(Cc4ccccn4)nn3)c2)CC1 [Example 2.1]
20,12,N/C(=N\C(=O)c1nc(Cl)c(N)nc1N)NC1CCN(Cc2cncc(-c3cn(CCOCCOCCOCCO)nn3)c2)CC1 [Example 2.2]
21,21,N/C(=N\C(=O)c1nc(Cl)c(N)nc1N)NC1CCN(Cc2ccnc(C(=O)O)c2)CC1 [Example 3.1]
22,31,N/C(=N\C(=O)c1nc(Cl)c(N)nc1N)NC1CCN(Cc2ccc(C(=O)O)s2)CC1 [Example 3.2]
23,16,N/C(=N\C(=O)c1nc(Br)c(N)nc1N)NC1CCN(Cc2ccnc(C(=O)O)c2)CC1 [Example 4.1]
